Test results published in patent US6620985B1, “PAD4 nucleic acid compositions from Arabidopsis and methods therefor” (University of Maryland Biotechnology Institute, priority 1998, dated 2003).

Key:
Psm ES4326 = Psm ES4326 growth in plants sprayed with SA; type: in vivo, Pseudomonas syringae pv maculicola; settings: 5 mM SA sprayed one day before infection; titer three days after infection; wild-type and pad4-1
Text: (§1) Inoculations with Bacteria and Treatment with Chemicals. Pseudomonas syringae pv maculicola (Psm) ES4326 (Dong et al., 1991, Plant Cell 3, 61-72; Crute et al., 1994, in Arabidopsis, eds. Meyerowitz & Somerville, Cold Spring Harbor Press, NY, pp. 705-747), Pseudomonas. syringae pv tomato (Pst) DC3000 (Cuppels, 1986, Appl. Environ. Microbiol. 52, 323-327) and Xanthomonas campestris pv campestris (Xcc) BP109 (Weiss et al., 1994, J. Bacteriol. 176, 3354-3359) have been described. The avirulence gene avrRpt2 was carried on plasmid pLH12 as described (Dong et al., 1991, Plant Cell 3, 61-72; Whalen et al., 1991, Plant Cell 3, 49-59). P. syringae strains were grown in King's B medium supplemented with appropriate antibiotics (Glazebrook and Ausubel, 1994, Proc. Natl. Acad. Sci. USA 91, 8955-8959), and Xcc BP1 09 was grown in Luria-Bertani medium supplemented with 50 μg/mL rifampicin. Bacteria were infiltrated into Arabidopsis plants as described (Glazebrook and Ausubel, 1994, PNAS USA 91, 8955-8959; Glazebrook et al., 1996, Genetics 146: 381-392). For camalexin assays, the bacterial dose for P. syringae strains was 3×10^4 colony-forming units (cfu)/cm^2 leaf area (equivalent to OD600=0.006); for Xcc BP109 it was 5×10^5 cfu/cm^2 (OD600=0.1). […]

camalexin synthesis = test: Camalexin assay in Psm ES4326-infected leaves; type: in vivo, Arabidopsis thaliana; settings: SA sprayed one day before Psm ES4326 infection, assayed two days after infection
Text: as §1
Phytoalexin Quantitation. […]

PAD4 mRNA = test: PAD4 RNA blot analysis after SA treatment; type: in vivo, Arabidopsis thaliana; settings: 5 mM SA
Text: Inoculations with Bacteria and Treatment with Chemicals. Pseudomonas syringae pv maculicola (Psm) ES4326 (Dong et al., 1991, Plant Cell 3, 61-72; Crute et al., 1994, in Arabidopsis, eds. Meyerowitz & Somerville, Cold Spring Harbor Press, NY, pp. 705-747), Pseudomonas. syringae pv tomato (Pst) DC3000 (Cuppels, 1986, Appl. Environ. Microbiol. 52, 323-327) and Xanthomonas campestris pv campestris (Xcc) BP109 (Weiss et al., 1994, J. Bacteriol. 176, 3354-3359) have been described. The avirulence gene avrRpt2 was carried on plasmid pLH12 as described (Dong et al., 1991, Plant Cell 3, 61-72; Whalen et al., 1991, Plant Cell 3, 49-59). P. syringae strains were grown in King's B medium supplemented with appropriate antibiotics (Glazebrook and Ausubel, 1994, Proc. Natl. Acad. Sci. USA 91, 8955-8959), and Xcc BP1 09 was grown in Luria-Bertani medium supplemented with 50 μg/mL rifampicin. Bacteria were infiltrated into Arabidopsis plants as described (Glazebrook and Ausubel, 1994, PNAS USA 91, 8955-8959; Glazebrook et al., 1996, Genetics 146: 381-392). For camalexin assays, the bacterial dose for P. syringae strains was 3×10^4 colony-forming units (cfu)/cm^2 leaf area (equivalent to OD600=0.006); for Xcc BP109 it was 5×10^5 cfu/cm^2 (OD600=0.1). For experiments involving extraction of total RNA from infected leaves, Psm ES4326 and Psm ES4326 carrying avrRpt2 were introduced at a dose of 10^4 cfu/cm^2 leaf area (equivalent to OD600=0.002). For determination of Psm ES4326 growth, plants were infected with Psm ES4326 at a dose of 10^3 cfu/cm^2 leaf area (equivalent to OD600=0.0002). After […] were excised and bacterial growth was assayed as described (Glazebrook et al., 1996, Genetics 143, 973-982). Data are reported as means and standard deviations of the log(cfu/cm^2) of six replicates. For chemical treatment, plants were sprayed with 5 mM SA or 5 mM silver nitrate with 0.02% Silwet L-77 (Lehle Seeds, Tucson, Ariz.) to reduce surface tension. Control plants were sprayed with water containing 0.02% Silwet L-77.
PAD4 RNA Blot Analysis. […]

PR-1 = PR-1 expression (RNA blot) after SA treatment; type: in vivo, Arabidopsis thaliana
Text: Plants and Growth Conditions. Wild-type plants (Arabidopsis thaliana ecotype Columbia (Col)) and pad4 plants from a line that had been backcrossed four times to the wild-type parent (Col) (Glazebrook et al., 1996, Genetics 143, 973-982) were used in this study. Arabidopsis ecotype Keswick (Ksk) was provided by Eric Holub (Horticulture Research International, Warwick, UK). Arabidopsis ecotype Landsberg erecta (Ler) plants carrying the nahG transgene were provided by Xinnian Dong (Bowling et al., 1994, Plant Cell 6, 1845-1857). nahG mutant plants used in this example, and all other examples, were of the Ler ecotype. Plants were grown in pots in Metro-Mix 200 soil (Scotts-Sierra Horticultural Products Company, Marysville, Ohio) in a growth chamber (22±2° C., 85% relative humidity, 100 μE s^−1 m^−2 fluorescent illumination) on a 12-hr light/dark cycle. Fully-expanded leaves of four-week old plants were used.
Inoculations with Bacteria and Treatment with Chemicals. Pseudomonas syringae pv maculicola (Psm) ES4326 (Dong et al., 1991, Plant Cell 3, 61-72; Crute et al., 1994, in Arabidopsis, eds. Meyerowitz & Somerville, Cold Spring Harbor Press, NY, pp. 705-747), Pseudomonas. syringae pv tomato (Pst) DC3000 (Cuppels, 1986, Appl. Environ. Microbiol. 52, 323-327) and Xanthomonas campestris pv campestris (Xcc) BP109 (Weiss et al., 1994, J. Bacteriol. 176, 3354-3359) have been described. […]

Structure (SMILES): O=C(O)c1ccccc1O [SA, salicylic acid]
- resistance to Psm ES4326 (bacterial titer) (Psm ES4326): induced comparable levels of resistance to Psm ES4326 in wild-type and pad4-1 plants
- camalexin levels in wild-type plants (camalexin synthesis): little effect on camalexin levels
- camalexin levels in pad4-1 plants (camalexin synthesis; vs not pretreated): much higher camalexin levels
- PAD4 transcript levels in npr1-1 plants (PAD4 mRNA; six and twelve hours after treatment): undetectable
- PAD4 transcript levels in wild-type plants (PAD4 mRNA; wild-type (Col), six and twelve hours after treatment): markedly detectable
- PAD4 mRNA levels (PAD4 mRNA; wild-type (Col, Ler), pad4-1, pad4-3, pad4-4 plants): increased rapidly after SA treatment
- PR-1 mRNA level in pad4-1 plants (PR-1; 5 mM SA one day before Psm ES4326 infection, two days after infection): comparable to that in wild-type plants
- PR-1 expression in response to SA (PR-1; plants sprayed with 5 mM SA, wild-type and pad4-1, monitored for several days): induced similar levels of PR-1 expression in wild-type and pad4-1 plants
